Read-outs that look alike come from different tables or passages of the source.
What was measured:
[1] = test system: p-STAT1 (S727), p-STAT3(S727), p-STAT5(S726) in MOLM-14 xenograft tumors; experiment: Pharmacodynamics study in MOLM-14 xenograft model (western blot of tumors); type: in vivo, mice; details: 10, 50 and 100 mg/kg oral, 6 hrs; with higher doses
Procedure: For the in vivo western blot study, to assess gene expression in vivo, tumors were induced in female NOD SCID mice by s.c. inoculation of 5 × 10^6 AML cells suspended in matrigel. Mice bearing tumors of at least 100 mm^3 were treated with MK256. Mice were sacrificed after 6 hrs and tumors were harvested. The tumors were homogenized and lysed in T-per Mammalian Protein Extraction Reagent (78510, Thermo Fisher Scientific) containing protease and phosphatase inhibitors (88669, Thermo Fisher Scientific). Total protein concentration was measured using the Pierce BCA protein Assay Kit (23227, Thermo Fisher Scientific). Proteins were separated on SDS-PAGE and transferred to Nitrocellulose membrane. Immunoblotting was performed using specific antibodies. The following specific antibodies were used: Cell signaling technology: pSTAT1(S727) #8826, pSTAT1(Y701) #9167, STAT1 #14994, pSTAT3 (S727) #9134, pSTAT3(Y705) #9145, STAT3 #9139, pSTAT5(Y694) #4322, STAT5 #25656, b-ACTIN #3700, GAPDH #5174, BCL2 #4223, MCL-1 #94296, Cleaved PARP #9541, Cleaved Caspase3 #9661, IL6ST #12859, SmyD3 #3732, PD-L1 #13684. Invitrogen: IL6R PA5109855. Abcam: pSTAT5(S726) ab128896.

CYP2C9 = CYP2C9 (Homo sapiens, UniProt P11712); experiment: Cytochrome P450 inhibition assay; type: in vitro ADME; details: 50 uM
CYP2C9, sequence (P11712 whole entry): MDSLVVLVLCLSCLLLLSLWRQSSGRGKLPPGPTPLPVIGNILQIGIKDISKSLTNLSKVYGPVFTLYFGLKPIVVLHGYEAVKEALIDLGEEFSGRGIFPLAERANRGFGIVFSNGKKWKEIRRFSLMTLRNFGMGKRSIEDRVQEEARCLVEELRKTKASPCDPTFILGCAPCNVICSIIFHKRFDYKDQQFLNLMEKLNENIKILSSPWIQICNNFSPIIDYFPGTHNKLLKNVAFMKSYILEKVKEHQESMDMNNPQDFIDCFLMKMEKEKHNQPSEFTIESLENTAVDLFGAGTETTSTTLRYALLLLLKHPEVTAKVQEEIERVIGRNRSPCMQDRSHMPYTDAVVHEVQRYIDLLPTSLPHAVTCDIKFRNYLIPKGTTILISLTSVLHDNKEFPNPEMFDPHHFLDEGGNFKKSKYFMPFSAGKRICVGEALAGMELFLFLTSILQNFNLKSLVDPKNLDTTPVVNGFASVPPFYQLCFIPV

[2] = test system: p-STATs, MCL-1, BCL-2, cleaved Parp, cleaved Caspase 3 in MOLM-14 cells; experiment: Western blot of STAT pathway and apoptosis markers in MOLM-14 cells; type: cell-based; parameters: targeted p-STATs and MCL-1 levels / expression of BCL-2: dose or concentration left out as unconfirmed
Procedure: For the in vitro western blot study, MV-4-11 and MOLM-14 cells were plated (6-well) at 5 × 10^5 cells per well with medium containing 1% FBS overnight. MK-256 was added in different concentrations at different time points. […] Total protein concentration was measured using the Pierce BCA protein Assay Kit (23227, Thermo Fisher Scientific). Proteins were separated on SDS-PAGE and transferred to Nitrocellulose membrane.

CYP2C19 = CYP2C19 (Homo sapiens, UniProt P33261); experiment: Cytochrome P450 inhibition assay; type: in vitro ADME; details: 50 uM
CYP2C19, sequence (P33261 whole entry): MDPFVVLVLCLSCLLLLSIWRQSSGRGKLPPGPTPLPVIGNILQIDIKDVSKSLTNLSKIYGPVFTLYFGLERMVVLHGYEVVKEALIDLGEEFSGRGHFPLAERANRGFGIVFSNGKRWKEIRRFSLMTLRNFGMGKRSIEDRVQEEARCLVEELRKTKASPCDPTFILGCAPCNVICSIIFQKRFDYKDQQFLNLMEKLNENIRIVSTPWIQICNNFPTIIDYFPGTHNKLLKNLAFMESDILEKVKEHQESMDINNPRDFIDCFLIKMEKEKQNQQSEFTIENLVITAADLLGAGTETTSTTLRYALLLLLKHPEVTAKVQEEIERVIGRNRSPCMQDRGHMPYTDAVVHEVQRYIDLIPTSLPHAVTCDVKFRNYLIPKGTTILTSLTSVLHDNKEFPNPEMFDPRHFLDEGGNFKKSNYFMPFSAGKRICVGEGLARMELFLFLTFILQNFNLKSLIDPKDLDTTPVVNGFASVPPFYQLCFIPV

[3] = Hepatocyte stability assay; type: in vitro ADME, Human
Procedure: (§1) Human LiverPoolTM 20-donor, dog and mouse cryopreserved hepatocytes were obtained from BioreclamationIVT. Cryopreserved hepatocytes were removed from the liquid nitrogen tank and thawed in a 37°C water bath. As soon as the cells pulled away from the vial wall, they were decanted into 48 ml of warm HT medium. Cells were centrifuged for four minutes at 420 rpm (50 g). After the supernatant was removed, the pellet was re-suspended in warm DMEM medium. Cell density was counted by a hemacytometer. The assay was carried out in 96-well microtiter plates. MK256 was incubated for 0, 60, 120, and 180 minutes at 37°C with hepatocytes. Reaction mixtures (50 μL) contained a final concentration of 1 μM MK256, 0.5 million cells/mL hepatocytes in the DMEM medium. At each time point (for example, 0, 1, 2, and 3 hrs), 200 μL of quench solution (100% acetonitrile with 0.1% formic acid) with internal standard were transferred to each well. […] All samples were analyzed on LC/MS/MS using an AB Sciex API 4000 instrument, coupled to a Shimadzu LC-20AD LC Pump system. […] The extent of metabolism was calculated as the disappearance of the test compound, compared to the 0-min control reaction incubations. Initial rates were calculated for the compound concentration and used to determine t1/2 values and subsequently, the intrinsic clearance, CLint = (0.693)(1/t1/2 (min))(mL incubation/million cells).

[4] = Hepatocyte stability assay; type: in vitro ADME, Mouse
Procedure: as §1

CYP2D6 = CYP2D6 (Homo sapiens, UniProt P10635); experiment: Cytochrome P450 inhibition assay; type: in vitro ADME; details: 50 uM
CYP2D6, sequence (P10635 whole entry): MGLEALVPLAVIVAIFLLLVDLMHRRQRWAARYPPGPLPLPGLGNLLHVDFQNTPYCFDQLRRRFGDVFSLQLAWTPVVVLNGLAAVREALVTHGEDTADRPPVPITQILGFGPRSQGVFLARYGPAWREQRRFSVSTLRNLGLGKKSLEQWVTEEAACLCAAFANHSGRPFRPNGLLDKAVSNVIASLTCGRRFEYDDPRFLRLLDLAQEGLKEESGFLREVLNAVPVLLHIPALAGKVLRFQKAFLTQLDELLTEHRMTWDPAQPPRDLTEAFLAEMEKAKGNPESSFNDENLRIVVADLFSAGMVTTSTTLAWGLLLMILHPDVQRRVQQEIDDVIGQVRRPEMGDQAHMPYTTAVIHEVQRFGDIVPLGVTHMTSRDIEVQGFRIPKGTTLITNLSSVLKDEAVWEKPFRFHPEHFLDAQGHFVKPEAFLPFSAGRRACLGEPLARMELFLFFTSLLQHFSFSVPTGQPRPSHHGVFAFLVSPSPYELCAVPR

[5] = test system: MCL-1 mRNA in MOLM-14 cells; experiment: Real-time RT-PCR of MCL-1 mRNA; type: cell-based
Procedure: (§2) Total RNA from the various cell lines was isolated using the RNeasy extraction method (Qiagen, Valencia, CA, USA). First-strand cDNA was synthesized from total RNA by iScript cDNA synthesis (Bio-Rad, Hercules, CA, USA) according to the manufacturer’s instructions. Taqman RT–PCR analysis was performed on cDNA in a 384-well plate, using a Prism 7900HT Real-Time PCR System (Applied Biosystems, Foster City, CA, USA). Primers and Taqman probes were purchased from Applied Biosystems. The expression of target genes MCL1 (Hs03043899_m1, Thermo fisher) and CCL2 (Hs00234140_m1, Thermo fisher) in each sample was assayed in triplicate and normalized to human GUSB for mRNA expression analysis. An unpaired t test was used to calculate statistical significance.

MCL-1 mRNA in KG-1 cells = experiment: Real-time RT-PCR of MCL-1 mRNA; type: cell-based
Procedure: as §2

For `Nc1nccc2c(Br)cc3cc(C(=O)O)ccc3c12` [MK256], the “expression levels of p-STAT1 (S727), p-STAT3(S727), p-STAT5(S726) in tumors” value [1] was “further downregulated”, the “cytochrome P450 inhibition” value (CYP2C9) was “no inhibition” and the “levels of cleaved Parp and cleaved Caspase 3” value ([2]; 30 nM to 3 mM, 48 hr) was “dose-dependent upregulation”. For the same compound, the “p-levels of STATs, time course” value ([2]; 300 nM, 4 hrs and 24 hrs) was “further downregulated in a time-dependent manner”, the “p-STAT1 (S727), p-STAT3(S727), p-STAT5(S726) levels” value ([2]; 2-hrs, various concentrations) was “dose-dependent inhibitions” and the MCL-1 level ([2]; 2 hrs) was “downregulated”. The “expression of BCL-2” value ([2]; 48 hr) was “unexpected upregulation”, the “targeted p-STATs and MCL-1 levels” value ([2]; 48 hr) was “dose-dependent inhibition” and the “cytochrome P450 inhibition” value (CYP2C19) was “no inhibition”. For the same compound, the “Clint (μL·min^−1·mg protein^−1)” value ([3]; Human hepatocytes) was 16 μL·min^−1·mg protein^−1, the half-life at 1 µM ([3]; human, cryopreserved human hepatocytes (LiverPool 20-donor), read-out: T½) was 1.48 h and the “Clint (μL·min^−1·mg protein^−1)” value ([4]; Mouse hepatocytes) was 5 μL·min^−1·mg protein^−1. For the same compound, the half-life at 1 µM ([4]; mouse, cryopreserved mouse hepatocytes, read-out: T½) was 5.18 h, the “cytochrome P450 inhibition” value (CYP2D6) was “no inhibition” and the “MCL-1 mRNA level” value ([5]; 300 nM) was “barely changed”. The “MCL-1 mRNA level downregulated by” value ([5]; 1 uM) was ~ 30%, the “mRNA level decreased to” value (MCL-1 mRNA in KG-1 cells; 300 nM) was 25% and the “mRNA level decreased to” value (MCL-1 mRNA in KG-1 cells; 1 uM) was 30%.

Source: article PMC9629815, “MK256 is a novel CDK8 inhibitor with potent antitumor activity in AML through downregulation of the STAT pathway” (Oncotarget, 2022)
